Experimental data reported in US20230340011A1 (Asteroid Therapeutics, priority 2022, published 2023).
Where two headings read alike, the source gives them in different places.

Experiments:
[1] = target: SREBP-2 (Homo sapiens (Human), UniProt Q12772); test: In vitro assay SREBP-2: PathHunter U2OS SREBP-2 Nuclear Translocation Cell Line, U18666A-stimulated; type: cell-based
[2] = target: LXRβ (Homo sapiens (Human), UniProt P55055); test: In vitro assay LXRβ: PathHunter NHR CHO cells, LXRβ / Steroid Receptor Co-activator Peptide enzyme fragment complementation; type: cell-based
How it was run: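 Enzyme fragment complementation read-out: CHO cells stably expressing ProLink-tagged full-length human LXRβ plus nuclear enzyme acceptor–SRCP fusion, seeded and held overnight at 37° C. Medium with charcoal-dextran filtered serum; final vehicle 1%. Chemiluminescence measured after signal generation.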

[3] = PathHunter U2OS SREBP-2 nuclear translocation cells, U18666A 10 μM, overnight (16 hours)
[4] = PathHunter NHR CHO cells, full-length human LXRβ and SRCP, chemiluminescent signal, read-out: LXRβ PPI

Chain of LXRβ (P55055 whole entry, the tested form may be a part): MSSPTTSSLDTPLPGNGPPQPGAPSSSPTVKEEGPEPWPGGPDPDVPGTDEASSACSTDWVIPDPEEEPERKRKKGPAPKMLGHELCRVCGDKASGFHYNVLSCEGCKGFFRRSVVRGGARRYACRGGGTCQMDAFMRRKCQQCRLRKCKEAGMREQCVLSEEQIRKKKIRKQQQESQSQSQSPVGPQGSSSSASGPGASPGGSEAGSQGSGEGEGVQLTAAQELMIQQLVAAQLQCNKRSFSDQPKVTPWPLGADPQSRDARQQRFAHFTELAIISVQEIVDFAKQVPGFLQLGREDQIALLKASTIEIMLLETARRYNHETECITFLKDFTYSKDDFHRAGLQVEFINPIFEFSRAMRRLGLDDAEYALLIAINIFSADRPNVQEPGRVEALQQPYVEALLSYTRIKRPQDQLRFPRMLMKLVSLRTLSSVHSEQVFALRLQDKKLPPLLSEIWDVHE

| SMILES | IC50 [1, 3] | EC50 [2, 4] | IC50 [1] | EC50 [2] |
| --- | --- | --- | --- | --- |
| C[C@H](CCC(=O)N1CCC[C@@](C)(O)C1)[C@H]1CC[C@H]2[C@@H]3CC=C4C[C@@H](O)CC[C@]4(C)[C@H]3CC[C@]12C [Example 105, (R)-4-((3S,8S,9S,10R,13R,14S,17R)-3-hydroxy-10,13-dimethyl-2,3,4,7,8,9,10,11,12,13,14,15,16,17-tetradecahydro-1H-cyclopenta[a]phenanthren-17-yl)-1-((R)-3-hydroxy-3-methylpiperidin-1-yl) pentan-1-one] | < 250 nM | 1000 to 10000 nM |  |  |
| C[C@H](CCC(=O)N1CCN(C(=O)c2cn[nH]c2)CC1)[C@H]1CC[C@H]2[C@@H]3CC=C4C[C@@H](O)CC[C@]4(C)[C@H]3CC[C@]12C [Example 310, (R)-1-(4-(1H-pyrazole-4-carbonyl)piperazin-1-yl)-4-((3S,8S,9S,10R,13R,14S,17R)-3-hydroxy-10,13-dimethyl-2,3,4,7,8,9,10,11,12,13,14,15,16,17-tetradecahydro-1H-cyclopenta[a]phenanthren-17-yl)pentan-1-one] | < 250 nM | > 10000 nM |  |  |
| CC(=O)N1CCOC12CN(C(=O)CC[C@@H](C)[C@H]1CC[C@H]3[C@@H]4CC=C5C[C@@H](O)CC[C@]5(C)[C@H]4CC[C@]13C)C2 [Example 410, (4R)-4-[(1R,3aS,3bS,7S,9aR,9bS,11aR)-7-hydroxy-9a,11a-dimethyl-1H,2H,3H,3aH,3bH,4H,6H,7H,8H,9H,9aH,9bH,10H,11H,11aH-cyclopenta[a]phenanthren-1-yl]-1-{δ-acetyl-5-oxa-2,8-diazaspiro[3.4]octan-2-yl}pentan-1-one] | 1000 to 10000 nM | > 10000 nM |  |  |
| CON(C(=O)CC[C@@H](C)[C@H]1CC[C@H]2[C@@H]3CC=C4C[C@@H](O)CC[C@]4(C)[C@H]3CC[C@]12C)[C@@H](C)CO [Example 72, (R)-4-((3S,8S,9S,10R,13R,14S,17R)-3-hydroxy-10,13-dimethyl-2,3,4,7,8,9,10,11,12,13,14,15,16,17-tetradecahydro-1H-cyclopenta[a]phenanthren-17-yl)-N—((S)-1-hydroxypropan-2-yl)-N-methoxypentanamide] | 250 to 1000 nM | 250 to 1000 nM |  |  |
| C[C@H](CCC(=O)N1CCCOCC1)[C@H]1CC[C@H]2[C@@H]3CC=C4C[C@@H](O)CC[C@]4(C)[C@H]3CC[C@]12C [Example 81, (R)-4-((3S,8S,9S,10R,13R,14S,17R)-3-hydroxy-10,13-dimethyl-2,3,4,7,8,9,10,11,12,13,14,15,16,17-tetradecahydro-1H-cyclopenta[a]phenanthren-17-yl)-1-(1,4-oxazepan-4-yl)pentan-1-one] | < 250 nM | 250 to 1000 nM |  |  |
| CC(=O)NC1(C)CCN(C(=O)CC[C@@H](C)[C@H]2CC[C@H]3[C@@H]4CC=C5C[C@@H](O)CC[C@]5(C)[C@H]4CC[C@]23C)CC1 [Example 83, N-(1-((R)-4-((3S,8S,9S,10R,13R,14S,17R)-3-hydroxy-10,13-dimethyl-2,3,4,7,8,9,10,11,12,13,14,15,16,17-tetradecahydro-1H-cyclopenta[a]phenanthren-17-yl)pentanoyl)-4-methylpiperidin-4-yl)acetamide] | 250 to 1000 nM | > 10000 nM |  |  |
| C[C@H](CCC(=O)N1CCN(C(=O)N(C)CC2CC2)C[C@@H]1C)[C@H]1CC[C@H]2[C@@H]3CC=C4C[C@@H](O)CC[C@]4(C)[C@H]3CC[C@]12C [Example 637, (S)—N-(cyclopropylmethyl)-4-((R)-4-((3S,8S,9S,10R,13R,14S,17R)-3-hydroxy-10,13-dimethyl-2,3,4,7,8,9,10,11,12,13,14,15,16,17-tetradecahydro-1H-cyclopenta[a]phenanthren-17-yl)pentanoyl)-N,3-dimethylpiperazine-1-carboxamide] | < 250 nM | > 10000 nM |  |  |
| C[C@H](CCC(=O)N1CCC(N(C)S(C)(=O)=O)CC1)[C@H]1CC[C@H]2[C@@H]3CC=C4C[C@@H](O)CC[C@]4(C)[C@H]3CC[C@]12C [Example 289, N-{1-[(4R)-4-[(1R,3aS,3bS,7S,9aR,9bS,11aR)-7-hydroxy-9a,11a-dimethyl-1H,2H,3H,3aH,3bH,4H,6H,7H,8H,9H,9aH,9bH,10H,11H,11aH-cyclopenta[a]phenanthren-1-yl]pentanoyl]piperidin-4-yl}-N-methylmethanesulfonamide] | 250 to 1000 nM | > 10000 nM |  |  |
| C[C@H](C(=O)Nc1ccncc1)[C@H]1CC[C@H]2[C@@H]3CC=C4C[C@@H](O)CC[C@]4(C)[C@H]3CC[C@]12C [Example 600, (S)-2-((3S,8S,9S,10R,13S,14S,17R)-3-hydroxy-10,13-dimethyl-2,3,4,7,8,9,10,11,12,13,14,15,16,17-tetradecahydro-1H-cyclopenta[a]phenanthren-17-yl)-N-(pyridin-4-yl)propanamide] | 1000 to 10000 nM | > 10000 nM |  |  |
| COC(C)C1CCN(C(=O)CC[C@@H](C)[C@H]2CC[C@H]3[C@@H]4CC=C5C[C@@H](O)CC[C@]5(C)[C@H]4CC[C@]23C)CC1 (stereo partly drawn) [Example 469, (4R)-4-((3S,8S,9S,10R,13R,14S,17R)-3-hydroxy-10,13-dimethyl-2,3,4,7,8,9,10,11,12,13,14,15,16,17-tetradecahydro-1H-cyclopenta[a]phenanthren-17-yl)-1-(4-(1-methoxyethyl)piperidin-1-yl)pentan-1-one] | < 250 nM | 250 to 1000 nM |  |  |
| C[C@H](CCC(=O)N1CCC2(CCCO2)CC1)[C@H]1CC[C@H]2[C@@H]3CC=C4C[C@@H](O)CC[C@]4(C)[C@H]3CC[C@]12C [Example 88, (R)-4-((3S,8S,9S,10R,13R,14S,17R)-3-hydroxy-10,13-dimethyl-2,3,4,7,8,9,10,11,12,13,14,15,16,17-tetradecahydro-1H-cyclopenta[a]phenanthren-17-yl)-1-(1-oxa-δ-azaspiro[4.5]decan-δ-yl)pentan-1-one] | < 250 nM | > 10000 nM |  |  |
| CC(C)OC(=O)N1CCN(C(=O)CC[C@@H](C)[C@H]2CC[C@H]3[C@@H]4CC=C5C[C@@H](O)CC[C@]5(C)[C@H]4CC[C@]23C)CC1 [Example 341, isopropyl4-((R)-4-((3S,8S,9S,10R,13R,14S,17R)-3-hydroxy-10,13-dimethyl-2,3,4,7,8,9,10,11,12,13,14,15,16,17-tetradecahydro-1H-cyclopenta[a]phenanthren-17-yl)pentanoyl)piperazine-1-carboxylate] | < 250 nM | > 10000 nM |  |  |
| COCCN(C)C(=O)N1CCN(C(=O)CC[C@@H](C)[C@H]2CC[C@H]3[C@@H]4CC=C5C[C@@H](O)CC[C@]5(C)[C@H]4CC[C@]23C)CC1 [Example 209, 4-((R)-4-((3S,8S,9S,10R,13R,14S,17R)-3-hydroxy-10,13-dimethyl-2,3,4,7,8,9,10,11,12,13,14,15,16,17-tetradecahydro-1H-cyclopenta[a]phenanthren-17-yl)pentanoyl)-N-(2-methoxyethyl)-N-methylpiperazine-1-carboxamide] |  | > 10000 nM | < 250 nM |  |
| C[C@H](CCC(=O)N1CCN(C(=O)c2cccnc2)CC1)[C@H]1CC[C@H]2[C@@H]3CC=C4C[C@@H](O)CC[C@]4(C)[C@H]3CC[C@]12C [Example 313, (4R)-4-[(1R,3aS,3bS,7S,9aR,9bS,11aR)-7-hydroxy-9a,11a-dimethyl-1H,2H,3H,3aH,3bH,4H,6H,7H,8H,9H,9aH,9bH,10H,11H,11aH-cyclopenta[a]phenanthren-1-yl]-1-[4-(pyridine-3-carbonyl)piperazin-1-yl]pentan-1-one] |  |  | < 250 nM | > 10000 nM |
| C[C@H](CCC(=O)N1C[C@@H]2C[C@]2(c2ccccc2)C1)[C@H]1CC[C@H]2[C@@H]3CC=C4C[C@@H](O)CC[C@]4(C)[C@H]3CC[C@]12C [Example 78, (4R)-4-((3S,8S,9S,10R,13R,14S,17R)-3-hydroxy-10,13-dimethyl-2,3,4,7,8,9,10,11,12,13,14,15,16,17-tetradecahydro-1H-cyclopenta[a]phenanthren-17-yl)-1-(1-phenyl-3-azabicyclo[3.1.0]hexan-3-yl)pentan-1-one] | < 250 nM | 1000 to 10000 nM |  |  |
| C[C@H](CCC(=O)N(C)OCCC(F)(F)F)[C@H]1CC[C@H]2[C@@H]3CC=C4C[C@@H](O)CC[C@]4(C)[C@H]3CC[C@]12C [Example 29, (R)-4-((3S,8S,9S,10R,13R,14S,17R)-3-hydroxy-10,13-dimethyl-2,3,4,7,8,9,10,11,12,13,14,15,16,17-tetradecahydro-1H-cyclopenta[a]phenanthren-17-yl)-N-methyl-N-(3,3,3-trifluoropropoxy)pentanamide] | < 250 nM | > 10000 nM |  |  |
| C[C@H](CCC(=O)N1CCN(C(=O)N2CCC2)CC1)[C@H]1CC[C@H]2[C@@H]3CC=C4C[C@@H](O)CC[C@]4(C)[C@H]3CC[C@]12C [Example 208, (R)-1-(4-(azetidine-1-carbonyl)piperazin-1-yl)-4-((3S,8S,9S,10R,13R,14S,17R)-3-hydroxy-10,13-dimethyl-2,3,4,7,8,9,10,11,12,13,14,15,16,17-tetradecahydro-1H-cyclopenta[a]phenanthren-17-yl)pentan-1-one] | < 250 nM | > 10000 nM |  |  |
| C[C@H](CCC(=O)N1CCN(C(=O)c2cn(C)nn2)CC1)[C@H]1CC[C@H]2[C@@H]3CC=C4C[C@@H](O)CC[C@]4(C)[C@H]3CC[C@]12C [Example 308, (R)-4-((3S,8S,9S,10R,13R,14S,17R)-3-hydroxy-10,13-dimethyl-2,3,4,7,8,9,10,11,12,13,14,15,16,17-tetradecahydro-1H-cyclopenta[a]phenanthren-17-yl)-1-(4-(1-methyl-1H-1,2,3-triazole-4-carbonyl)piperazin-1-yl)pentan-1-one] | < 250 nM | > 10000 nM |  |  |
